Assay results published in the supplement of paper PMC11061612.

Legend:
Experiment in all cases: Bliss excess, mean over the matrix (fraction); higher = more synergy
[1] = test system: HT-1197 (Bladder Carcinoma)
Procedure, shortened: (§1)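 Bliss excess equals the observed combination effect minus the expected value EA + EB − EA·EB, where EA and EB are the effects of each agent alone. Combination Emax is the second-highest inhibition within the matrix. Inhibition was scaled from CellTiter-Glo 2.0 luminescence, with 0 set by vehicle wells and 1 by blank wells, after 72 hours of two-drug dosing of cells plated in 1536-well plates.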

[2] = test system: NCI-H2023 (Non-Small Cell Lung Carcinoma)
Procedure, shortened: as §1

[3] = test system: SNU-1 (Gastric Carcinoma)
Procedure, shortened: as §1

[4] = test system: DK-MG (Glioblastoma)
Procedure, shortened: as §1

[5] = test system: NCI-H1648 (Lung Adenocarcinoma)
Procedure, shortened: as §1

[6] = test system: SBC-5 (Small Cell Lung Carcinoma)
Procedure, shortened: as §1

[7] = test system: RS4-11 (B-Lymphoblastic Leukemia)
Procedure, shortened: as §1

[8] = test system: HT-144 (Melanoma)
Procedure, shortened: as §1

[9] = test system: SUP-HD1 (Hodgkin's Lymphoma)
Procedure, shortened: as §1

[10] = test system: NCI-H1975 (Lung Adenocarcinoma)
Procedure, shortened: as §1

[11] = test system: TOV-21G (Ovarian Carcinoma)
Procedure, shortened: as §1

[12] = test system: NCI-H2170 (Squamous Cell Lung Carcinoma)
Procedure, shortened: as §1

[13] = test system: KNS-62 (Squamous Cell Lung Carcinoma)
Procedure, shortened: as §1

[14] = test system: MRK-nu-1 (Breast Carcinoma)
Procedure, shortened: as §1

[15] = test system: BC-1 (B-Cell Non-Hodgkin's Lymphoma)
Procedure, shortened: as §1

[16] = test system: OVKATE (Ovarian Carcinoma)
Procedure, shortened: as §1

[17] = test system: SK-MEL-24 (Melanoma)
Procedure, shortened: as §1

[18] = test system: MDA-MB-175-VII (Breast Carcinoma)
Procedure, shortened: as §1

[19] = test system: GCIY (Gastric Carcinoma)
Procedure, shortened: as §1

[20] = test system: HT-3 (Cervical Carcinoma)
Procedure, shortened: as §1

Compound | Bliss excess [1] | Bliss excess [2] | Bliss excess [3] | Bliss excess [4] | Bliss excess [5] | Bliss excess [6] | Bliss excess [7] | Bliss excess [8] | Bliss excess [9] | Bliss excess [10] | Bliss excess [11] | Bliss excess [12] | Bliss excess [13] | Bliss excess [14] | Bliss excess [15] | Bliss excess [16] | Bliss excess [17] | Bliss excess [18] | Bliss excess [19] | Bliss excess [20]
COc1cccc(OCCCN)c1-c1cc(Nc2cnc(C#N)cn2)n[nH]1 [Prexasertib] + CN(C)CCCOc1ccc(-c2ccc3ncc4c(c3c2)n(C2CCOCC2)c(=O)n4C)cn1 [AZD0156] (first compound max 1 µM, 7x7, partner max 1 µM) | -0.0183 | -0.0373 | -0.0201 | -0.0104 | -0.0136 | -0.0086 | -0.0548 | -0.0135 | -0.0442 | 0.026 | 0.0588 | 0.0156 | 0.0357 | 0.0456 | -0.0057 | -0.069 | 0.0017 | -0.0173 | -0.0072 | 0.0366
Cc1c2c(nn1C)CSCc1cc(n(C)n1)CSc1cc(c3ccccc3c1)OCCCc1c(C(=O)O)n(C)c3c-2c(Cl)ccc13 [AZD5991] + Cc1cc2ncnn2cc1Nc1ncc2c(n1)n(C1CCOCC1)c(=O)n2C [AZD7648] (first compound max 1 µM, 7x7, partner max 10 µM) | -0.059 | -0.0423 | -0.0307 | -0.101 | -0.0218 | -0.0447 | – | -0.0131 | -0.104 | -0.104 | -0.0461 | -0.0144 | 0.0266 | -0.0058 | 0.0172 | -0.0347 | -0.0134 | -0.0055 | -0.0242 | -0.0173
CCc1c2c(nc3ccc(O)cc13)-c1cc3c(c(=O)n1C2)COC(=O)[C@]3(O)CC [SN-38] + CN(C)CCCOc1ccc(-c2ccc3ncc4c(c3c2)n(C2CCOCC2)c(=O)n4C)cn1 [AZD0156] (first compound max 0.3 µM, 7x7, partner max 1 µM) | -0.0537 | -0.0017 | 0.0303 | -0.0007 | -0.0451 | 0.0245 | -0.0347 | -0.0219 | -0.0579 | 0.006 | -0.0349 | 0.0296 | -0.0557 | -0.0534 | 0.0158 | -0.0763 | 0.0267 | -0.0043 | 0.0057 | 0.0499
Cc1c2c(nn1C)CSCc1cc(n(C)n1)CSc1cc(c3ccccc3c1)OCCCc1c(C(=O)O)n(C)c3c-2c(Cl)ccc13 [AZD5991] + CC1(C)CCC(CN2CCN(c3ccc(C(=O)NS(=O)(=O)c4ccc(NCC5CCOCC5)c([N+](=O)[O-])c4)c(Oc4cnc5[nH]ccc5c4)c3)CC2)=C(c2ccc(Cl)cc2)C1 [Venetoclax] (first compound max 1 µM, 7x7, partner max 1 µM) | -0.0257 | -0.0387 | 0.136 | -0.0696 | -0.0482 | -0.0218 | 0.0963 | 0.005 | 0.0788 | -0.0053 | -0.0115 | -0.0333 | -0.0426 | 0.0139 | 0.0493 | -0.0527 | -0.0426 | -0.0306 | 0.0076 | 0.0195
Cc1c2c(nn1C)CSCc1cc(n(C)n1)CSc1cc(c3ccccc3c1)OCCCc1c(C(=O)O)n(C)c3c-2c(Cl)ccc13 [AZD5991] + C1CN(CCC1(C(=O)N[C@@H](CCO)C2=CC=C(C=C2)Cl)N)C3=NC=NC4=C3C=CN4 [Capivasertib] (first compound max 1 µM, 7x7, partner max 3 µM) | -0.0002 | -0.0028 | -0.0176 | 0.047 | -0.0326 | -0.0069 | -0.0148 | 0.0582 | -0.0833 | 0.0322 | -0.0249 | -0.0324 | 0.0047 | 0.0055 | 0.0256 | -0.0461 | -0.0196 | 0.0261 | 0.0118 | 0.0198
CCN(CCO)CCCOc1ccc2c(Nc3cc(CC(=O)Nc4cccc(F)c4)[nH]n3)ncnc2c1 [AZD2811] + C=CCn1c(=O)c2cnc(Nc3ccc(N4CCN(C)CC4)cc3)nc2n1-c1cccc(C(C)(C)O)n1 [AZD1775] (first compound max 1 µM, partner max 1 µM) | -0.114 | 0.0031 | 0.0679 | 0.0373 | -0.0388 | 0.114 | -0.0523 | 0.0516 | -0.0238 | 0.0001 | 0.0317 | 0.051 | -0.0339 | 0.0147 | -0.031 | -0.0565 | -0.0378 | -0.0427 | 0.0503 | -0.0176
CC1(C)CCC(CN2CCN(c3ccc(C(=O)NS(=O)(=O)c4ccc(NCC5CCOCC5)c([N+](=O)[O-])c4)c(Oc4cnc5[nH]ccc5c4)c3)CC2)=C(c2ccc(Cl)cc2)C1 [Venetoclax] + C[C@@H]1COCCN1C2=NC(=NC(=C2)C3(CC3)[S@](=N)(=O)C)C4=C5C=CNC5=NC=C4 [AZD6738] (first compound max 1 µM, 7x7, partner max 10 µM) | -0.0033 | -0.0671 | -0.0114 | -0.0914 | -0.0262 | -0.0486 | 0.0104 | 0.0378 | -0.0605 | -0.0391 | -0.0256 | -0.0019 | -0.121 | -0.0003 | 0.0087 | -0.0291 | -0.0429 | -0.0433 | -0.0468 | -0.0419
Cc1c2c(nn1C)CSCc1cc(n(C)n1)CSc1cc(c3ccccc3c1)OCCCc1c(C(=O)O)n(C)c3c-2c(Cl)ccc13 [AZD5991] + CN(C)CCCOc1ccc(-c2ccc3ncc4c(c3c2)n(C2CCOCC2)c(=O)n4C)cn1 [AZD0156] (first compound max 1 µM, 7x7, partner max 1 µM) | -0.0357 | -0.0069 | -0.0144 | -0.0518 | -0.0433 | 0.0387 | -0.0177 | -0.0352 | -0.122 | -0.0241 | -0.0213 | -0.0237 | -0.0201 | -0.028 | 0.0274 | -0.0708 | -0.0328 | 0.0076 | – | 0.0222
NC1(C(=O)N[C@@H](CCO)c2ccc(Cl)cc2)CCN(c2ncnc3[nH]ccc23)CC1 [Capivasertib] + CC(=O)c1c(C)c2cnc(Nc3ccc(N4CCNCC4)cn3)nc2n(C2CCCC2)c1=O [Palbociclib] (first compound max 10 µM, 7x7, partner max 10 µM) | 0.0024 | 0.0276 | 0.0634 | -0.0228 | -0.0039 | 0.0352 | -0.0425 | -0.0486 | -0.0643 | -0.0456 | -0.0466 | 0.0137 | -0.0236 | 0.001 | 0.0026 | -0.018 | -0.0514 | 0.0127 | -0.0402 | -0.0182
CC(=O)c1c(C)c2cnc(Nc3ccc(N4CCNCC4)cn3)nc2n(C2CCCC2)c1=O [Palbociclib] + CN(CC[C@H](CSC1=CC=CC=C1)NC2=C(C=C(C=C2)S(=O)(=O)NC(=O)C3=CC=C(C=C3)N4CCC(CC4)[C@H](C5=CC=CC=C5C6=CC=C(C=C6)Cl)O)S(=O)(=O)C(F)(F)F)CCO [AZD4320] (first compound max 10 µM, 7x7, partner max 1 µM) | -0.0184 | – | -0.066 | -0.0456 | – | -0.0715 | -0.0308 | -0.0774 | -0.0407 | -0.0291 | -0.0853 | -0.0809 | – | – | – | – | – | – | – | -0.0431
C=CCn1c(=O)c2cnc(Nc3ccc(N4CCN(C)CC4)cc3)nc2n1-c1cccc(C(C)(C)O)n1 [AZD1775] + C[C@@H]1COCCN1C2=NC(=NC(=C2)C3(CC3)[S@](=N)(=O)C)C4=C5C=CNC5=NC=C4 [AZD6738] (first compound max 1 µM, partner max 10 µM) | -0.0057 | -0.0674 | – | -0.0342 | 0.0111 | 0.0037 | 0.0188 | -0.0482 | -0.0282 | 0.0451 | -0.0523 | -0.0253 | 0.0257 | 0.0633 | 0.0338 | -0.0703 | -0.0189 | -0.0184 | 0.0091 | 0.0386
COc1nnc2ccc(N3CCC(c4ccc(OCCN5CCN(C)C(=O)[C@H]5C)cc4)CC3)nn12 [AZD5153] + CN(CC[C@H](CSC1=CC=CC=C1)NC2=C(C=C(C=C2)S(=O)(=O)NC(=O)C3=CC=C(C=C3)N4CCC(CC4)[C@H](C5=CC=CC=C5C6=CC=C(C=C6)Cl)O)S(=O)(=O)C(F)(F)F)CCO [AZD4320] (first compound max 1 µM, 7x7, partner max 1 µM) | 0.073 | – | 0.0023 | 0.0382 | – | -0.0012 | 0.0211 | 0.0439 | -0.0094 | -0.012 | 0.0211 | 0.0175 | – | – | – | – | – | – | – | 0.0347
